The source of these data is patent US20230348442A1, “GALECTIN-3 INHIBITING 2-HYDROXYCYCLOALKANE-1-CARBAMOYL DERIVATIVES” (Idorsia Pharmaceuticals Ltd, priority 2020, published 2023).

As a reminder, the IC50 is the concentration at which inhibition is half-maximal. A low value points to greater potency in that assay.

Sequence of human Gal-3 (hGal-3) (P17931 whole entry): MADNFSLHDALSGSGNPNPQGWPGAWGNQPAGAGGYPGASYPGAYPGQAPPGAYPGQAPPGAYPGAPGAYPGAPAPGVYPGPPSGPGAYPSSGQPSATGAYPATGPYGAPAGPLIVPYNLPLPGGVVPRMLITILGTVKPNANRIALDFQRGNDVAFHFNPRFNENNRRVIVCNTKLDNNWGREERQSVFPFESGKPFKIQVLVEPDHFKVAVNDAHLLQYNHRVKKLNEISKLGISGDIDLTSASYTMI

The target in this experiment is human Gal-3 (hGal-3) (Homo sapiens (Human), UniProt P17931). Briefly: competitive binding assay: binding of biotinylated hGal-3 to microplate-adsorbed asialofetuin (ASF), spectrophotometric. To be noted: Activity on hGal-3; mean values of several measurements. A digest of the protocol:
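Biotinylated hGal-3 (300-1000 ng/mL) bound to ASF-coated wells with serially diluted compound, 3 h at 4° C. After washing, bound protein was detected with streptavidin-peroxidase (80 ng/mL, 1 h, 4° C) and ABTS substrate; IC50 values are means of several measurements.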
In the case of `CC(=O)O[C@@H]1[C@@H](n2cc(-c3cc(F)c(Cl)c(F)c3)nn2)[C@@H](O)[C@@H](CO)O[C@H]1C(=O)N(c1cc(Cl)cc(Cl)c1)[C@H]1CCC[C@@H]1O` [Example 1A.5.2, (2R,3R,4S,5R,6R)-4-(4-(4-chloro-3,5-difluorophenyl)-1H-1,2,3-triazol-1-yl)-2-((3,5-dichlorophenyl)((1S,2S)-2-hydroxycyclopentyl)carbamoyl)-5-hydroxy-6-(hydroxymethyl)tetrahydro-2H-pyran-3-yl acetate], the IC50 was 19.8 nM. This counts as double-digit nanomolar.

For the compound `CO[C@@H]1[C@@H](n2cc(-c3cc(F)c(F)c(F)c3)nn2)[C@@H](O)[C@@H](CO)O[C@H]1C(=O)N(c1cc(Br)cc(C#N)c1)[C@H]1CC[C@@H]1O` [Example 2.1.5, (2R,3R,4S,5R,6R)-N-(3-bromo-5-cyanophenyl)-5-hydroxy-N-((1S,2S)-2-hydroxycyclobutyl)-6-(hydroxymethyl)-3-methoxy-4-(4-(3,4,5-trifluorophenyl)-1H-1,2,3-triazol-1-yl)tetrahydro-2H-pyran-2-carboxamide], the IC50 stood at 44.5 nM.

`COc1cc(C#N)cc(N(C(=O)[C@@H]2O[C@H](CO)[C@H](O)[C@H](n3cc(-c4ccc(C#N)c(F)c4)nn3)[C@H]2OC)[C@H]2CCC[C@@H]2O)c1` [Example 1.16.9, (2R,3R,4S,5R,6R)-4-(4-(4-cyano-3-fluorophenyl)-1H-1,2,3-triazol-1-yl)-N-(3-cyano-5-methoxyphenyl)-5-hydroxy-N-((1S,2S)-2-hydroxycyclopentyl)-6-(hydroxymethyl)-3-methoxytetrahydro-2H-pyran-2-carboxamide]: the IC50 was found to be 256 nM.

`CO[C@@H]1[C@@H](n2cc(-c3cc(F)c(Cl)c(F)c3)nn2)[C@@H](O)[C@@H](CO)O[C@H]1C(=O)N(c1cc(Br)cc(C#N)c1)[C@@H]1CC[C@H]1O` [Example 2.5.5R, (2R,3R,4S,5R,6R)-N-(3-bromo-5-cyanophenyl)-4-(4-(4-chloro-3,5-difluorophenyl)-1H-1,2,3-triazol-1-yl)-5-hydroxy-N-((1R,2R)-2-hydroxycyclobutyl)-6-(hydroxymethyl)-3-methoxytetrahydro-2H-pyran-2-carboxamide]: the IC50 is 184 nM.

`CO[C@@H]1[C@@H](n2cc(-c3ccc(Br)c(F)c3F)nn2)[C@@H](O)[C@@H](CO)O[C@H]1C(=O)N(c1cc(Cl)cc(Cl)c1)[C@@H]1CC[C@H]1O` [Example 2.12.2R, (2R,3R,4S,5R,6R)-4-(4-(4-bromo-2,3-difluorophenyl)-1H-1,2,3-triazol-1-yl)-N-(3,5-dichlorophenyl)-5-hydroxy-N-((1R,2R)-2-hydroxycyclobutyl)-6-(hydroxymethyl)-3-methoxytetrahydro-2H-pyran-2-carboxamide] returned an IC50 of 100 nM.

`CO[C@@H]1[C@@H](n2cc(-c3ccc(Cl)c(F)c3F)nn2)[C@@H](O)[C@@H](CO)O[C@H]1C(=O)N(c1cc(Br)cc(C#N)c1)[C@@H]1CCC[C@H]1O` [Example 1.14.5R, (2R,3R,4S,5R,6R)-N-(3-bromo-5-cyanophenyl)-4-(4-(4-chloro-2,3-difluorophenyl)-1H-1,2,3-triazol-1-yl)-5-hydroxy-N-((1R,2R)-2-hydroxycyclopentyl)-6-(hydroxymethyl)-3-methoxytetrahydro-2H-pyran-2-carboxamide] showed an IC50 of 25.5 nM. This IC50 is about 3.9-fold lower than that of the compound before.

With `CO[C@@H]1[C@@H](n2cc(-c3cc(F)c(Br)c(F)c3)nn2)[C@@H](O)[C@@H](CO)O[C@H]1C(=O)N(c1cc(Cl)cc(C#N)c1)[C@H]1CC[C@@H]1O` [Example 2.6.4, (2R,3R,4S,5R,6R)-4-(4-(4-bromo-3,5-difluorophenyl)-1H-1,2,3-triazol-1-yl)-N-(3-chloro-5-cyanophenyl)-5-hydroxy-N-((1S,2S)-2-hydroxycyclobutyl)-6-(hydroxymethyl)-3-methoxytetrahydro-2H-pyran-2-carboxamide], the IC50 was 80 nM.
